Assay [1] relates to Nucleic Acid. Description: Binding affinity to duplex DG DNA assessed as DNA intercalation by circular dichroism spectra analysis. In kind it is nucleic-acid assay. A general note: CD spectra are sensitive to the conformation of chiral molecules.
Assay [2] has as its system Nucleic Acid. Description: Binding affinity to duplex DG DNA in 0.02 M cacodylate buffer assessed as change in melting temperature at 10 uM at pH 7 by UV spectrophotometer analysis. In kind it is nucleic-acid assay.
Assay [3] relates to Nucleic Acid. Description: Binding affinity to duplex DG DNA in 0.02 M cacodylate buffer assessed as change in melting temperature at 10 uM at pH 7 by UV spectrophotometer analysis in presence of 0.1 M sodium chloride. In kind it is nucleic-acid assay.
Assay [4] has as its system Nucleic Acid. Description: Binding affinity to duplex DA DNA in 0.02 M cacodylate buffer assessed as change in melting temperature at 10 uM at pH 7 by UV spectrophotometer analysis. In kind it is nucleic-acid assay.
Assay [5] concerns Nucleic Acid. Description: Binding affinity to duplex DA DNA in 0.02 M cacodylate buffer assessed as change in melting temperature at 10 uM at pH 7 by UV spectrophotometer analysis in presence of 0.1 M sodium chloride. The assay is classed as nucleic-acid assay.
Assay [6] deals with Nucleic Acid. Description: Binding affinity to duplex DM DNA in 0.02 M cacodylate buffer assessed as change in melting temperature at 10 uM at pH 7 by UV spectrophotometer analysis. The assay is classed as nucleic-acid assay.
Assay [7] concerns Nucleic Acid. Description: Binding affinity to duplex DM DNA in 0.02 M cacodylate buffer assessed as change in melting temperature at 10 uM at pH 7 by UV spectrophotometer analysis in presence of 0.1 M sodium chloride. The assay is classed as nucleic-acid assay.
In the next assay the test system is 5637. Description: Cytotoxicity against human 5637 cells assessed after 92 hrs by microtiter assay. In kind it is functional, cell-based. The following applies: Homo sapiens, 5637, 92 h.
The subject of another assay is RT-4. Description: Cytotoxicity against human RT4 cells after 92 hrs by microtiter assay. In kind it is functional, cell-based. The settings on record: RT-4, 92 h.
The next assay has as its system A-427. Description: Cytotoxicity against human A427 cells after 92 hrs by microtiter assay. The assay is classed as functional, cell-based. The settings on record: A-427, 92 h.
The nature of assay [8]: Cytotoxicity against human LCLC-103H cells after 92 hrs by microtiter assay. In kind it is functional, cell-based.
The subject of another assay is DAN-G. Description: Cytotoxicity against human DAN-G cells after 92 hrs by microtiter assay. The assay is classed as functional, cell-based.
The test system of the next assay is MCF7. Description: Cytotoxicity against human MCF7 cells after 92 hrs by microtiter assay. The assay is classed as functional, cell-based. The settings on record: MCF7, 92 h.
The subject of assay [9] is Nucleic Acid. Description: Binding affinity to duplex DG DNA in 0.02 M cacodylate buffer assessed as melting temperature at 10 uM at pH 7 by UV spectrophotometer analysis. The assay is classed as nucleic-acid assay.
In assay [10] the test system is Nucleic Acid. Description: Binding affinity to duplex DG DNA in 0.02 M cacodylate buffer assessed as melting temperature at 10 uM at pH 7 by UV spectrophotometer analysis in presence of 0.1 M sodium chloride. The assay is classed as nucleic-acid assay.
Assay [11] relates to Nucleic Acid. Description: Binding affinity to duplex DA DNA in 0.02 M cacodylate buffer assessed as melting temperature at 10 uM at pH 7 by UV spectrophotometer analysis. In kind it is nucleic-acid assay.
The subject of assay [12] is Nucleic Acid. Description: Binding affinity to duplex DA DNA in 0.02 M cacodylate buffer assessed as melting temperature at 10 uM at pH 7 by UV spectrophotometer analysis in presence of 0.1 M sodium chloride. The assay is classed as nucleic-acid assay.
For assay [13], the system named is Nucleic Acid. Description: Binding affinity to duplex DM DNA in 0.02 M cacodylate buffer assessed as melting temperature at 10 uM at pH 7 by UV spectrophotometer analysis. The assay is classed as nucleic-acid assay.
Assay [14] has as its system Nucleic Acid. Description: Binding affinity to duplex DM DNA in 0.02 M cacodylate buffer assessed as melting temperature at 10 uM at pH 7 by UV spectrophotometer analysis in presence of 0.1 M sodium chloride. In kind it is nucleic-acid assay.
Assay [15] has as its system Nucleic Acid. Description: Binding affinity to duplex DG DNA at 0.75 uM by fluorescence emission spectral analysis. In kind it is nucleic-acid assay.
Assay [16] deals with Nucleic Acid. Description: Displacement of ethidium bromide from duplex DG DNA after 5 mins. The assay is classed as nucleic-acid assay.

The source made the active and inactive calls. The rule behind the calls is not given here. Bounds are passed on as bounds.

On to `COc1cccc2c(-c3ccc(C(=O)NCCN(C)C)cc3)c3[nH]c4c(OC)cccc4c3nc12`, for which the outcome with Nucleic Acid [1] and in the assay with Nucleic Acid [15] was Active. In addition, the ΔTm was 1.7 °C with Nucleic Acid [2]; -0.5 °C with Nucleic Acid [3]; 2.5 °C in the assay with Nucleic Acid [4]; 0.5 °C in the assay with Nucleic Acid [5]; 3.1 °C with Nucleic Acid [6]; 0.5 °C with Nucleic Acid [7]. Further, the IC50 in the assay with 5637 is 2.1 µM; in the assay on RT-4, 3.6 µM; in the assay on A-427, 1.7 µM; in [8] it was 3.2 µM; in the assay with DAN-G, 3.6 µM; in the assay with MCF7, 2.9 µM. The midpoint of thermal melting (Tm) in the assay on Nucleic Acid [9] stood at 42.4 °C; with Nucleic Acid [10] it was 52 °C; in the assay with Nucleic Acid [11], 35.3 °C; with Nucleic Acid [12], 45.3 °C; with Nucleic Acid [13], 32.8 °C; in the assay on Nucleic Acid [14] it was 40.6 °C. The C50 in the assay on Nucleic Acid [16] turned out to be 93 µM.
For the compound `COC(=O)c1ccc(-c2c3cccc(OC)c3nc3c2[nH]c2c(OC)cccc23)cc1`, the IC50 in the assay with 5637 is 11 µM; with RT-4 it was above 20 µM; in the assay with A-427 it was 16.6 µM; in [8], above 20 µM; with DAN-G, above 20 µM; with MCF7, above 20 µM.
For the compound `COC(=O)c1ccc(-c2c3cccc(C)c3nc3c2[nH]c2c(C)cccc23)cc1`, the IC50 with 5637 was above 20 µM; with RT-4 it was above 20 µM; with A-427, above 20 µM; in assay [8], above 20 µM; in the assay with DAN-G, above 20 µM; with MCF7 it was 13.8 µM.
Regarding `Cc1cccc2c(-c3ccc(C(=O)NCCN(C)C)cc3)c3[nH]c4c(C)cccc4c3nc12`, the ΔTm in the assay on Nucleic Acid [2] is 0.8 °C; in the assay on Nucleic Acid [3] it was -0.9 °C; with Nucleic Acid [4], 1.5 °C; in the assay on Nucleic Acid [5], 0.3 °C; with Nucleic Acid [6] it was 1 °C; with Nucleic Acid [7] it was 0.2 °C. Further, the IC50 in the assay with 5637 is 3.2 µM; in the assay on RT-4, 4.2 µM; in the assay on A-427, 3.2 µM; in [8] it was 3.7 µM; in the assay on DAN-G it was 2.6 µM; in the assay on MCF7 it was 3 µM. Besides, the Tm amounted to 41.5 °C in the assay with Nucleic Acid [9]; 51.6 °C in the assay on Nucleic Acid [10]; 34.3 °C in the assay on Nucleic Acid [11]; 45.1 °C with Nucleic Acid [12]; 30.7 °C in the assay on Nucleic Acid [13]; 40.3 °C in the assay with Nucleic Acid [14].

Usually ΔTm stands for the shift of the melting midpoint relative to a reference. The IC50 is the point on the concentration scale where inhibition reaches its midpoint. A word on the Tm: it is the temperature at the midpoint of the melting transition.

The record behind these values is ChEMBL document CHEMBL1759985, “In vitro anticancer activity and evaluation of DNA duplex binding affinity of phenyl-substituted indoloquinolines” (Bioorg Med Chem Lett, 2011).
